The data set is described as follows: Human HepG2 cell viability assay in 384 well format. In kind it is toxicity, cell-based. Further details: dose 125 nL, time 70.5 hour; concentration not given beside the values. As to conditions: HepG2 cells, read-out: Inhibition.

Regarding `CC(C)(C)n1nnnc1CN(Cc1ccccc1)Cc1ccc(Cl)cc1`, the cytotoxicity at 70.5 h was determined as 8.17%. The figure for `COCCN1CCCC(c2ncc(C(=O)N(C)C)c(C)n2)C1` (stereo not drawn) is -1.17%; for `Cn1c(=O)cc(C(=O)NC(Cc2ccsc2)c2cccnc2)[nH]c1=O` (stereo not drawn) it is -3.19%; for `Cc1cnc(-c2nc(O)c3c(n2)CN(C(=O)C2CCCC2)CC3)cn1` it is -1.77%. In the case of `COc1ccccc1-c1ccccc1CC1(C(=O)O)CCNCC1`, the cytotoxicity at 70.5 h came to 0.76%. With `Fc1cccc(CN2CCC(c3noc(-c4ccccn4)n3)CC2)c1F`, the cytotoxicity at 70.5 h is -0.639%. Regarding `O=C(Cn1cccc2cc(-c3ccc(F)cc3)nc1-2)N1CCC(O)CC1`, the cytotoxicity at 70.5 h was found to be 3.41%. In the case of `CC(=O)N[C@@H]1CN(C(=O)CC2CCOCC2)C[C@H]1O` it was -1.61%; in that of `Clc1ccc(CN(CCN2CCOCC2)Cc2cccnc2)c(Cl)c1`, -5.57%; in that of `Cc1ncc(CN(C)C)c(C2CCCN2c2ncccn2)n1` (stereo not drawn), -7.95%. The figure for `Cc1cc(CCC2CN(CC3(O)CCCCC3)CCO2)ncn1` (stereo not drawn) is 19.4%; for `O=C(Cc1cccc(O)c1)N1CCCC(O)(CN2CCCC2)CC1` (stereo not drawn) it is -6.1%. In the case of `c1ccc(CN2CCN(Cc3cnc(C4CCCCO4)nc3)CC2)cc1` (stereo not drawn) it was 1.9%. `c1nc(C2CCCCO2)ncc1CN1CCOCC1` (stereo not drawn): the cytotoxicity at 70.5 h is -4.04%. The figure for `CC(=O)N1CCCC(Cc2cnc(-c3c(C)nn(C)c3C)cn2)C1` (stereo not drawn) is -7.67%; for `COc1cccc(S(=O)(=O)N2C[C@H](OC)[C@]3(CCCO3)C2)c1` it is -4.33%. As for `CO[C@H]1CN(S(=O)(=O)c2ccccc2F)C[C@@]12CCCO2`, the cytotoxicity at 70.5 h is -7.14%. In the case of `O=C(c1ccc(-n2cccn2)nc1)N1CCC(c2ccn[nH]2)C1` (stereo not drawn) it was -8.23%; in that of `CS(=O)(=O)CCN1CCN(c2ccc(Cl)cn2)CC1`, 1.44%. As for `O=C(NCCc1nncn1C1CC1)C1(c2ccccc2)CCC1`, the cytotoxicity at 70.5 h was -5.9%.

Turning to `COCCS(=O)(=O)NC(C)c1cccc(-n2cccn2)c1` (stereo not drawn), the cytotoxicity at 70.5 h came out at 0.445%. The figure for `CCC(NC(=O)c1ccc(OC)nn1)c1nc(C(F)(F)F)cs1` (stereo not drawn) is -6.03%; for `CCCS(=O)(=O)CC(=O)NC(C)c1cccc(-n2cccn2)c1` (stereo not drawn) it is 10.5%; for `CC(NCc1cnn(C)c1)c1noc(-c2ccc(Cl)cc2)n1` (stereo not drawn) it is -5.15%. Regarding `CCC(C)Oc1cc(C(=O)N(c2cccnc2)C(C)C)ccn1` (stereo not drawn), the cytotoxicity at 70.5 h worked out at 0.858%. In the case of `CC(NS(=O)(=O)N(C)C)c1cccc(-n2cccn2)c1` (stereo not drawn) it was -3.97%; in that of `O=C(C1CC1)N(CCc1ccccc1)C1CCOC1` (stereo not drawn), -6.28%. Take `Cn1ccnc1C(O)(CCNCc1ccc(Cl)o1)C(F)(F)F` (stereo not drawn): the cytotoxicity at 70.5 h is -14.8%.

Turning to `Cn1ccnc1C(O)(CCNCc1ccco1)C(F)(F)F` (stereo not drawn), the cytotoxicity at 70.5 h came to 5.83%. As to `CC(=O)N1CCC(Oc2cccc(C#N)c2)CC1`, the cytotoxicity at 70.5 h is 13.4%. In the case of `Cn1cc(C(NCc2ccc(F)cc2)c2cccc(F)c2)cn1` (stereo not drawn) it was -13.5%; in that of `COc1ccc(CN2CCCC(n3cccn3)C2)c(Cl)c1OC` (stereo not drawn), -9%. In the case of `CC(C(=O)N(C)Cc1ccc(Br)o1)n1cncn1` (stereo not drawn) it was -1.04%. In the case of `COc1cccc(COCC(=O)NC2CCN(CC(N)=O)CC2)c1` it was -5.13%; in that of `Cc1ccc(S(=O)(=O)NCc2[nH]ncc2Br)cc1C`, -8.92%.

Consider `Cc1ccc(C(C)NC(=O)Cc2c(C)nc3cc(=O)[nH]n3c2C)s1` (stereo not drawn), for which the cytotoxicity at 70.5 h was -10.8%. The figure for `CC/C=C(/C)C(=O)N1CSCC1C(=O)NC1=NCCS1` (stereo not drawn) is -7.18%. The figure for `Cc1ccc(NC2CCN(C(=O)CCC3CCCO3)CC2)nn1` (stereo not drawn) is -3.33%; for `CCC(C)(O)CNc1ccc(S(=O)(=O)C(F)F)cc1` (stereo not drawn) it is -5.3%; for `CNC(=O)C(CC(C)C)NC(=O)c1cccc(-c2nc(C)cs2)c1` (stereo not drawn) it is 15.4%. For the compound `COCC(O)CNc1cncc(Br)c1` (stereo not drawn), the cytotoxicity at 70.5 h was -2.5%. In the case of `Cc1ccc(CNC(=O)c2ccc(CNS(C)(=O)=O)o2)cc1F` it was 17.8%. Regarding `O=C(CCc1nc(-c2cccnc2)no1)N(CC1CCOC1)C1CC1` (stereo not drawn), the cytotoxicity at 70.5 h stood at 12%. In the case of `CC(C)(C)c1noc(CCC(=O)N(CC2CCOC2)C2CC2)n1` (stereo not drawn) it was 2.82%; in that of `COCCN1CC(C(=O)N(C)Cc2ccc(Cl)s2)CC1=O` (stereo not drawn), -10.5%. The figure for `Cc1ccc(CN(C)C(=O)C(C)n2cncn2)o1` (stereo not drawn) is -4.1%.

In the case of `COc1c(C)cnc(CN2CCn3c(nnc3C3CC3)C2)c1C`, the cytotoxicity at 70.5 h is -2.97%. In the case of `c1ccc(CCN2CCC(OCC3CCCCO3)CC2)nc1` (stereo not drawn) it was 5.3%; in that of `Cc1cccc2nc(CN3CCC(N4CCN(C)C4=O)CC3)cn12`, -4.38%; in that of `CC(C)(C)NC(=O)CNc1ncccn1`, -8.78%. For `CN(C)CCN(Cc1ccc(Cl)cc1)C(=O)c1ccn(C)c(=O)c1`, the cytotoxicity at 70.5 h was -5.83%. Regarding `Cc1cc(C(=O)NC(C)Cc2ccc(N(C)C)cc2)n(C)n1` (stereo not drawn), the cytotoxicity at 70.5 h is -1.34%. The figure for `Cc1cc(C)n2cc(CN3CCC(N4CCN(C)C4=O)CC3)nc2n1` is -0.599%; for `c1cnc(N2CCC(OCC3CCCCO3)CC2)nc1` (stereo not drawn) it is -2.08%; for `COC(=O)NCC(=O)N1CCC(c2cc3ccccc3[nH]2)CC1` it is -8.79%. Regarding `Clc1cccc(C(CNCc2ccccn2)N2CCOCC2)c1` (stereo not drawn), the cytotoxicity at 70.5 h was found to be 48.6%. In the case of `CCOC1CCCN(C(=O)CCOc2ccc(C)cc2OC)C1` (stereo not drawn) it was 24.8%. In the case of `CNS(=O)(=O)c1ccc(F)c(C(=O)NCc2ccnc(OC)c2)c1` it was 25.8%; in that of `CC(C)CC(=O)N1CCC2(CC1)OCCO2`, -6.38%.

Turning to `CC(C)C(C)NC(=O)CNc1cc2c(cc1Cl)NC(=O)CO2` (stereo not drawn), the cytotoxicity at 70.5 h was found to be 6.71%. The figure for `CC(NC(=O)CNc1cc2c(cc1Cl)OCCO2)c1ccco1` (stereo not drawn) is -8.18%; for `COc1ccc(-c2nc(CCNC(=O)NC3CCC(O)CC3)co2)cc1` (stereo not drawn) it is 17.3%. The figure for `CCN(C)c1cc(CNC(=O)CNC(=O)CC2CCCCC2)ccn1` is -16.4%; for `Clc1cccc(C(CNc2ncccn2)N2CCOCC2)c1` (stereo not drawn) it is -5.68%. The figure for `CCc1[nH]c(C2(N)CCCCC2)nc(=O)c1C` is -4.64%; for `CCc1[nH]c(C2(N)CCCC2)nc(=O)c1C` it is 19.5%. For the compound `CCOC1CCN(C(=O)NCc2cccc(-n3cccn3)c2)CC1`, the cytotoxicity at 70.5 h was -5.08%. In the case of `NC(=O)CC1CCN(C(=O)NCc2cccc(-n3cccn3)c2)CC1` it was -1.91%; in that of `CC1CCN(C(=O)C2(Cc3cc(C4CCOC4)no3)CCNCC2)CC1` (stereo not drawn), -1.77%. On to `NCC(=O)N1CCCC1c1n[nH]cc1-c1ccccc1F` (stereo not drawn), for which the cytotoxicity at 70.5 h worked out at 25.4%. In the case of `CCn1cncc1CN1CCN(CC2(c3ccc(C)cc3)CC2)CC1` it was 12%; in that of `NCc1ccc(Oc2ccc(F)c(F)c2)cc1C(F)(F)F`, -0.173%. The figure for `CN(Cc1cccc2cccnc12)C1CCS(=O)(=O)C1` (stereo not drawn) is 24.2%.

Source of the values: ChEMBL document CHEMBL3507680, “University of Dundee, Gates Library screen for HepG2 cell viability”.
